Measurements as given in US4397860A, “Benzodioxanyl imidazoline compounds, compositions and use” (Reckitt & Colman Products Limited, priority 1981, dated 1983).
Counter-ions that a name gives are not always drawn. Like-named read-outs stand apart in the source and are kept apart here.

Tests used:
[1] = biological target: T1, pre-synaptic α2-adrenoreceptor (Mus musculus, UniProt Q01338); experiment: Pre-synaptic α2-adrenoreceptor agonist activity, mouse vas deferens (inhibition of twitch responses); design: key: I.A.: inactive; details: potency relative to clonidine = 1
T1 construct: from tissue; host or cells: mouse vas deferens
T1 sequence (Q01338 1-465): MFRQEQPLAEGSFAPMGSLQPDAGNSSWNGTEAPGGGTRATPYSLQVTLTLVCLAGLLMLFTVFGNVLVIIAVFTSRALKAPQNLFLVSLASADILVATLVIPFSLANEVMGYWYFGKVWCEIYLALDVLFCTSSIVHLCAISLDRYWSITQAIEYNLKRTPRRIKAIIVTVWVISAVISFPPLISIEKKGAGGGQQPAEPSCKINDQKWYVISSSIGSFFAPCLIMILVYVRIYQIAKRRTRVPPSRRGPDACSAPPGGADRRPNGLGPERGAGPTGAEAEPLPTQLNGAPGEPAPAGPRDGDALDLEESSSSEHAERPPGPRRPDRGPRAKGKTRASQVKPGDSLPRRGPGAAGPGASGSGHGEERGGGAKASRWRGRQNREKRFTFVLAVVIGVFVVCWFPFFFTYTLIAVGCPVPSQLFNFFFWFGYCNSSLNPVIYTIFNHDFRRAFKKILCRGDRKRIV
Protocol: The pharmacological activity of the compound of Example 1 (in formula I R^1 =methyl) has been compared with the activities of the isomeric compounds in which the methyl group is situated at differing positions in formula A. The procedures involved the measurement of agonist or antagonist activity at pre- and post-synaptic α-adrenoreceptors.
In the procedures outlined below agonist potency of the compounds was determined with respect to standard agents whereas antagonist potency was related to that of the compound of formula A. Pre- and post-synaptic studies were carried out in the mouse vas deferens and rat anococcygeus muscle respectively.
Pre-synaptic studies (α2)
The mouse vas deferens was stimulated at low frequency (0.1 Hz) and the "twitch" responses recorded. Pre-synaptic α2 -adrenoreceptor agonist activity was determined by assessing the ability of compounds to inhibit these contractions. When inhibition was seen the potency of the individual compounds was related to that of the standard α2 -adrenoreceptor agonist clonidine.

[2] = system: pre-synaptic α2-adrenoreceptor; experiment: Pre-synaptic α2-adrenoreceptor antagonist activity, mouse vas deferens (reversal of clonidine inhibition); details: for α2/α1 selectivity: selectivity relative to the compound of formula A, mouse vas deferens / rat anococcygeus
[3] = biological target: T2, postsynaptic α1-adrenoreceptor (Rattus norvegicus, UniProt P43140); experiment: Post-synaptic α1-adrenoreceptor agonist activity, rat anococcygeus muscle (contractions); design: key: I.A.: inactive; details: potency relative to phenylephrine = 1
T2 construct: the rat anococcygeus muscle is used to establish postsynaptic α1 -adrenoreceptor activity; from tissue; host or cells: rat anococcygeus muscle
T2 sequence (P43140 1-466): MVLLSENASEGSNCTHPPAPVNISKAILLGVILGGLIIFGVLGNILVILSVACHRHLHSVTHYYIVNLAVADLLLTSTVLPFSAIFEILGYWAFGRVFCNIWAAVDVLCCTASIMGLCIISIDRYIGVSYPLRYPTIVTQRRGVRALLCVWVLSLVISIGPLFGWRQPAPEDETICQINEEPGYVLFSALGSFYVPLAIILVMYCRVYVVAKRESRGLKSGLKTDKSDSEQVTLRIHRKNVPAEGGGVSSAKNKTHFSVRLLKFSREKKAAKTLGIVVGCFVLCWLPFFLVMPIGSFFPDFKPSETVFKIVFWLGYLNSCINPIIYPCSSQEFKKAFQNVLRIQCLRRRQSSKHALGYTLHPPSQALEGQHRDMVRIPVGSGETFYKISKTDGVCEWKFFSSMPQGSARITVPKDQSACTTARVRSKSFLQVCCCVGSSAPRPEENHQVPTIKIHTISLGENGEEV

[4] = biological target: T2, postsynaptic α1-adrenoreceptor; experiment: Post-synaptic α1-adrenoreceptor antagonist activity, rat anococcygeus muscle (noradrenaline-induced contractions)
[5] = biological target: T2, postsynaptic α1-adrenoreceptor; experiment: Postsynaptic α1-adrenoreceptor antagonism vs noradrenaline contractions, isolated rat anococcygeus muscle; details: mean of minimum 5 experiments, read-out: Postsynaptic antagonism pA2 vs Noradrenaline (anococcygeus) (converted)
[6] = system: presynaptic α2-adrenoreceptors; details: from G.B. 2,068,376A / U.S. Ser. No. 230,195; cited from earlier work
[7] = rat anococcygeus muscle vs noradrenaline, dose-ratio of 2, […]

| α1 potency: Antagonism [4] | SMILES | α2 potency: Agonism [1] | α2/α1 selectivity [2] | α1 potency: Agonism [3] | Kb [5] | selectivity relative to the compound of formula A (in words) ([2]; Table 3) | α1 potency: Antagonism [4, 7] | α1 potency: Antagonism (result in words) ([4]; rat anococcygeus muscle vs noradrenaline, 20ng/ml) | selectivity in blocking presynaptic α2-adrenoreceptors (in words) [6] |
| --- | --- | --- | --- | --- | --- | --- | --- | --- | --- |
| 1.0 | CN1CCN=C1C1COc2ccccc2O1 (stereo not drawn) [3^1 -methyl] | I.A. | 0.003 | I.A. | – | – | – | – | – |
| – | CC1(C2=NCCN2)COc2ccccc2O1 (stereo not drawn) [Example 1, 2-[2-(2-Methyl-1,4-benzodioxanyl)]-2-imidazoline hydrochloride] | I.A. | 2.4 | I.A. | 2510 nM | rather more than twice as selective as the compound of formula A | 0.28 | – | – |
| – | CC1Oc2ccccc2OC1C1=NCCN1 (stereo not drawn) [Example 3-methyl] | I.A. | – | I.A. | – | – | < 0.023 | – | – |
| – | Cc1cccc2c1OCC(C1=NCCN1)O2 (stereo not drawn) [Example 5-methyl] | 0.1 | – | 1.0 | – | – | – | Potentiation | – |
| – | Cc1ccc2c(c1)OCC(C1=NCCN1)O2 (stereo not drawn) [Example 6-methyl] | I.A. | 0.7 | I.A. | – | – | < 0.11 | – | – |
| – | Cc1ccc2c(c1)OC(C1=NCCN1)CO2 (stereo not drawn) [Example 7-methyl] | I.A. | 0.64 | 0.004 | – | – | 0.125 | – | – |
| – | Cc1cccc2c1OC(C1=NCCN1)CO2 (stereo not drawn) [Example 8-methyl] | 0.01 | – | 2.1 | – | – | – | – | – |
| – | c1ccc2c(c1)OCC(C1=NCCN1)O2 (stereo not drawn) [formula A, 2-[2-(1,4-benzodioxanyl)]-2-imidazoline] | – | – | – | – | – | – | – | high degree of selectivity in blocking presynaptic α2 -adrenoreceptors |
